The subject of assay [1] is LRRK2 pSer935. The experiment in a line: LRRK2 Ser935 dephosphorylation (immunoblot) in LRRK2^G2019S MEFs. The following applies: for EC50: Mus musculus, dose response; for T1/2 GS-pSer935-LRRK2: LRRK2^G2019S MEFs. It counts as cell-based, mouse. Here is the method: (§1) Western blot degradation assays for the LRRK2 protacs were performed with WT and PD-associated LRRK2 [G2019S] mouse embryonic fibroblasts (MEFs). The second-generation PROTACs were tested in parallel with the first generation PROTACs SD75, SD82, and SD100. The compounds were tested at 33 nM or […] concentrations for 4 hours or 24 hours, running two biological replicates per condition and achieving quantifications representative of both replicates. Analysis by quantitative immunoblotting was performed with readouts of the total LRRK2 (antibody recognizes epitope in C-terminus of protein), Rab10 pThr73 (physiological substrate) and LRRK2 pSer935 (biomarker phosphorylation site).
(§2) Primary MEFs were generated as described in a previous study (Wiggin et al., Mol. Cell Biol. 2002 April; 22(8):2871-81.). Briefly, the uterine horn was collected from adult female mice at day E12.5 and transferred to a 10 cm tissue culture dish containing cold PBS. Two forceps were used to tear the yolk sacs to isolate each embryo. Forceps were cleaned thoroughly with 70% ethanol between each embryo isolation. The embryos were culled, and a tissue piece was collected in a PCR tube for genotyping. The red tissue of the embryo, which grows to become the heart and liver, was removed. The remainder of the embryo was minced with a scalpel blade and incubated with 7.5 ml trypsin-EDTA solution for 10 minutes in a 37° C. tissue culture CO2 incubator. The dish was removed from the incubator and checked under a light microscope for single cells. 7.5 ml complete media was added to the trypsinised cells, and the cell suspension was transferred to a 15 ml Falcon tube, centrifuged at 1200 rpm for 5 minutes at room temperature. The trypsin was aspirated, the cell pellet was resuspended in 5 ml fresh complete media, and the cell suspension was plated in a 60 mm tissue culture dish and incubated in a 37° C., 5% CO2 tissue culture incubator. The MEFs at this stage were considered as passage 0 and were passaged and expanded for experimental use once the genotype was confirmed by allelic sequencing and immunoblotting. MEFs were cultured in Dulbecco's modified Eagle medium (DMEM) containing 10% (v/v) fetal bovine serum (FBS), 2 mM L-glutamine, 100 U/ml penicillin, and 100 μg/ml streptomycin supplemented with 1× non-essential amino acids and 1 mM sodium pyruvate.
(§3) Culturing and passaging of adherent cell lines were carried out using aseptic technique in CL1 or CL2 (for PBMC isolation) biological safety cabinets. All cells were incubated in a 37° C. incubator with 5% CO2. Cell lines were regularly tested for mycoplasma contamination. For western blot assay, the cells were seeded in 6-well plates. After treating with testing compounds at indicated concentrations and time period, the media was removed and the cells were washed with PBS and lysed in 100 μl ice-cold complete lysis buffer containing 50 mM Tris-HCl pH 7.4, 1 mM EGTA, 10 mM 2-glycerophosphate, 50 mM sodium fluoride, 5 mM sodium pyrophosphate, 270 mM sucrose, supplemented with 1 μg/ml microcystin-LR, 1 mM sodium orthovanadate, complete EDTA-free protease inhibitor cocktail (Roche) and 1% (v/v) Triton X-100. The cells were immediately placed on ice and were scraped and collected into 1.5 ml Eppendorf tubes. Cell lysates were incubated on ice for 10 minutes prior to centrifugation at 15,000 g at 4° C. for 15 minutes. The cell pellet was discarded, and supernatant was collected for analysis by quantitative immunoblotting. For long term storage, the supernatant was flash frozen and stored at −80° C. Protein concentrations of cell lysates were determined using the Bradford assay.
(§4) Cell lysates containing a quarter of a volume of 4× NuPAGE LDS sample buffer (NP0007) supplemented with 5% β-mercaptoethanol, were heated at 95° C. for 5 minutes. […]

In assay [2] the target is T1, LRRK2 (Homo sapiens, UniProt Q5S007). Briefly: NanoBRET-based ternary binding and cooperativity assay. Also on record: fused on or other part: NanoLuc luciferase fused to LRRK2 as the BRET donor tag. The following applies: permeabilized HEK293 cells, with VCB; read-out: IC50 LRRK2 engagement in the presence of VCB protein. How it is done:
(§5) The HEK293 cells were transfected with LRRK2-NanoLuc fusion vector (Promega, NV3401) following Promega's protocol and seeded into white 384-well plate (Corning3570) at a density of 6000 cells/well. The cells were then treated with 50 μg/mL of digitonin, 125 nM of LRRK2 tracer, testing compounds at decreasing concentrations (11 concentrations with 2-fold serial dilution starting from 10 μM) or testing compounds and VCB mix (11 concentrations with 2-fold serial dilution starting from 10 μM compound for the compound. The first 6 concentrations of VCB start from 32 μM with 2-fold dilution, the last 5 concentrations of VCB keep at 1 μM), and NanoBRET NanoGlo Substrate (Promega) at concentration recommended by the manufacturer's protocol. In the maximum signal control samples (DMSO control), DMSO was added instead of testing compounds. In the minimum signal control samples (no tracer control), DMSO and LRRK2 tracer dilution buffer were used to replace testing compounds and LRRK2 tracer separately. The filtered luminescence was measured within 10 min following addition of the substrate on a PHERAstar (BMG LABTECH) plate reader equipped with a 450-nm bandpass filter (donor) and a 600-nm long pass filter (acceptor). The fractional occupancy was calculated according to the equation: fractional occupancy=(mBRETtesting compound−mBRETno tracer control)/(mBRETDMSO control−mBRETno tracer control).
(In general: BRET reads energy transfer from a luciferase to a nearby fluorophore.)

The next assay deals with T2, LRRK2^G2019S (Mus musculus, UniProt Q5S006, G2019S).
T2 construct: endogenous in cells; host or cells: LRRK2[G2019S] mouse embryonic fibroblasts (MEFs)
T2 sequence (Q5S006 whole entry G2019S): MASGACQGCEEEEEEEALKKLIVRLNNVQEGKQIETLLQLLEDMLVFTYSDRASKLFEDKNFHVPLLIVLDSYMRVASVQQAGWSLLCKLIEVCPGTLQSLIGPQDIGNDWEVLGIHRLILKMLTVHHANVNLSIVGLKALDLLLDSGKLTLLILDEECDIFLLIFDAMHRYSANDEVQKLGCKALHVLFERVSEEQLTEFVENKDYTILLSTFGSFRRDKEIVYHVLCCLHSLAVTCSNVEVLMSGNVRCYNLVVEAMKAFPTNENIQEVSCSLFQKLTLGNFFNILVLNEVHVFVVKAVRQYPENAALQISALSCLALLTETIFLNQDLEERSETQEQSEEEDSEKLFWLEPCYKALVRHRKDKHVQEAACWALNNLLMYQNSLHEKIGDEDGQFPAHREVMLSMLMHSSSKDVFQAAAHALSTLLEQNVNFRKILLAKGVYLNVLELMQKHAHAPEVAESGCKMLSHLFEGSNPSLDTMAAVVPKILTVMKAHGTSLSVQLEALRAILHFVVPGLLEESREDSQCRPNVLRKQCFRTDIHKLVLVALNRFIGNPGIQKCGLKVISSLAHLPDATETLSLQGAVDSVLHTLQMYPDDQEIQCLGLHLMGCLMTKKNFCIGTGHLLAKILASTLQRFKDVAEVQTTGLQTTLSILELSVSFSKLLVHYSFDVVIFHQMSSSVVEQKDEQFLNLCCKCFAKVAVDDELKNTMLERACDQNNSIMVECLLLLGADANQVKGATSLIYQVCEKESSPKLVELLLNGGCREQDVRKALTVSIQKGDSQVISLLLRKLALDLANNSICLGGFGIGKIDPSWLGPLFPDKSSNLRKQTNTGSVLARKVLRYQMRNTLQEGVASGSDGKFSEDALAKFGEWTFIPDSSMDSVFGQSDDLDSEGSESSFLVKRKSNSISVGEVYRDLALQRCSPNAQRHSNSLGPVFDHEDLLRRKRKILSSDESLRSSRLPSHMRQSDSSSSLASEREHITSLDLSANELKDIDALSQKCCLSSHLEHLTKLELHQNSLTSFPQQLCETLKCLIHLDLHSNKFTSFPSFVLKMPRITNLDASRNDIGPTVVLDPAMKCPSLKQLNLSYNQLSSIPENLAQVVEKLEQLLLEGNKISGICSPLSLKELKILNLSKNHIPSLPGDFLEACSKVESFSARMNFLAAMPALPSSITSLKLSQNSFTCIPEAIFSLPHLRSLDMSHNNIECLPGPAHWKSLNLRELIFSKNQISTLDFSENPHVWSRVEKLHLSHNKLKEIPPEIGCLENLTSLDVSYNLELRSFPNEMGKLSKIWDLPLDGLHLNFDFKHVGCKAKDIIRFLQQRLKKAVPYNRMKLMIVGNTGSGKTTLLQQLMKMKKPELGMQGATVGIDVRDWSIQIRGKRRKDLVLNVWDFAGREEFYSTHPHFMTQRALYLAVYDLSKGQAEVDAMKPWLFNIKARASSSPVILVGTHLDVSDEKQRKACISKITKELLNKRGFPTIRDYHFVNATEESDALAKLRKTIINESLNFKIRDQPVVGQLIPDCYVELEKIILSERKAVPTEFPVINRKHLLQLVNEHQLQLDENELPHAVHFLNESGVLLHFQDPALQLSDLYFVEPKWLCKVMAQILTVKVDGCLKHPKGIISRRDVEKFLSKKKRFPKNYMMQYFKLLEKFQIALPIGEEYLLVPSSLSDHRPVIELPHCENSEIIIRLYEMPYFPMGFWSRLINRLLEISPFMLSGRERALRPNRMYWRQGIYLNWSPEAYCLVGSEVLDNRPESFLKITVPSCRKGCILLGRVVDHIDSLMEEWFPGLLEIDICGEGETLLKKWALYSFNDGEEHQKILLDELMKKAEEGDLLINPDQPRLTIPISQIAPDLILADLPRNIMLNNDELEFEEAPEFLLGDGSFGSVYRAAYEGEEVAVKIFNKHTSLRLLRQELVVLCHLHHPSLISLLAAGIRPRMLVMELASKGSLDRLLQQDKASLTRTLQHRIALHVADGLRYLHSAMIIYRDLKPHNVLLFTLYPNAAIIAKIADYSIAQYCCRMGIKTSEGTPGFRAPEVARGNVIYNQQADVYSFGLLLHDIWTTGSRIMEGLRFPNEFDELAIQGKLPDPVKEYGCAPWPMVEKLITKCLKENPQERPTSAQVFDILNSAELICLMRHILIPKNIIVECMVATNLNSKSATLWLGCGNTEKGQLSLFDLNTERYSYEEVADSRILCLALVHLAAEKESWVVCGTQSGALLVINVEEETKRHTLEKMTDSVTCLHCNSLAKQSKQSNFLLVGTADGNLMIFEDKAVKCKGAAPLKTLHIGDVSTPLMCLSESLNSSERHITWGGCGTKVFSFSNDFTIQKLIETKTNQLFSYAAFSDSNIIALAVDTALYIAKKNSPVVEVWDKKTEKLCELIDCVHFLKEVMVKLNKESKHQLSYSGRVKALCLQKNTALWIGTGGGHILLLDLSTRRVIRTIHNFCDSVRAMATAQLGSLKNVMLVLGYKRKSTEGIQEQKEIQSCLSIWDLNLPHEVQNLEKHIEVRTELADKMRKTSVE
Briefly: Western blot LRRK2 degradation in LRRK2^G2019S MEFs. The class given is cell-based. For orientation: Immunoblotting shows a protein as a band on a membrane.

In a further assay the test system is Rab10 pThr73. Briefly: Rab10 Thr73 dephosphorylation (immunoblot) in WT MEFs. The following applies: for inhibition at 0.033 µM / inhibition at 1 µM: read-out: pRab10 inhibited in WT MEFs; for EC50: dose response, read-out: WT MEFs pRab10-dephosphrylation EC50. It counts as cell-based, mouse. In short, it runs like this:
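Wild-type mouse embryonic fibroblasts in 6-well plates were treated with LRRK2 PROTACs, with two biological replicates per condition. Cells were washed in PBS and lysed on ice in buffer containing phosphatase and protease inhibitors plus 1% Triton X-100, then clarified at 15,000 g. Rab10 Thr73 phosphorylation was measured by quantitative immunoblotting of 15 to 20 μg protein on 4-12% Bis-Tris gels.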

Assay [3] deals with LRRK2 pSer935. The experiment in a line: LRRK2 Ser935 dephosphorylation (immunoblot) in WT MEFs. It counts as cell-based, mouse. The following applies: for EC50: Mus musculus, dose response, read-out: WT MEFs pSer935 LRRK2-dephosphrylation EC50; for T1/2 WT-pSer935-LRRK2: WT MEFs. How it is done: as §1, §2, §3, §4
Assay [4] deals with T1, LRRK2. The experiment in a line: NanoBRET-based ternary binding and cooperativity assay. Conditions: permeabilized HEK293 cells, without VCB; read-out: IC50 LRRK2 engagement in the absence of VCB. Also on record: host or cells: HEK293 (digitonin-permeabilized). How it is done: as §5
The mark [5] stands for this setting: Mus musculus, 33 nM/4 h treatment.
Where [6] appears, read: Mus musculus, 1 μM/4 h treatment.
Where [7] appears, read: Mus musculus, 1 μM/24 h treatment.
Where [8] appears, read: Mus musculus, 33 nM/24 h treatment.
The mark [9] stands for this setting: Mus musculus, time course at 300 nM, WT MEFs.

Like-named read-outs stand apart in the source and are kept apart here.

What is called EC50 is the concentration that produces a half-maximal response. One may read the IC50 as the concentration at which inhibition is half-maximal.

T1 sequence (Q5S007 whole entry, the tested form may be a part): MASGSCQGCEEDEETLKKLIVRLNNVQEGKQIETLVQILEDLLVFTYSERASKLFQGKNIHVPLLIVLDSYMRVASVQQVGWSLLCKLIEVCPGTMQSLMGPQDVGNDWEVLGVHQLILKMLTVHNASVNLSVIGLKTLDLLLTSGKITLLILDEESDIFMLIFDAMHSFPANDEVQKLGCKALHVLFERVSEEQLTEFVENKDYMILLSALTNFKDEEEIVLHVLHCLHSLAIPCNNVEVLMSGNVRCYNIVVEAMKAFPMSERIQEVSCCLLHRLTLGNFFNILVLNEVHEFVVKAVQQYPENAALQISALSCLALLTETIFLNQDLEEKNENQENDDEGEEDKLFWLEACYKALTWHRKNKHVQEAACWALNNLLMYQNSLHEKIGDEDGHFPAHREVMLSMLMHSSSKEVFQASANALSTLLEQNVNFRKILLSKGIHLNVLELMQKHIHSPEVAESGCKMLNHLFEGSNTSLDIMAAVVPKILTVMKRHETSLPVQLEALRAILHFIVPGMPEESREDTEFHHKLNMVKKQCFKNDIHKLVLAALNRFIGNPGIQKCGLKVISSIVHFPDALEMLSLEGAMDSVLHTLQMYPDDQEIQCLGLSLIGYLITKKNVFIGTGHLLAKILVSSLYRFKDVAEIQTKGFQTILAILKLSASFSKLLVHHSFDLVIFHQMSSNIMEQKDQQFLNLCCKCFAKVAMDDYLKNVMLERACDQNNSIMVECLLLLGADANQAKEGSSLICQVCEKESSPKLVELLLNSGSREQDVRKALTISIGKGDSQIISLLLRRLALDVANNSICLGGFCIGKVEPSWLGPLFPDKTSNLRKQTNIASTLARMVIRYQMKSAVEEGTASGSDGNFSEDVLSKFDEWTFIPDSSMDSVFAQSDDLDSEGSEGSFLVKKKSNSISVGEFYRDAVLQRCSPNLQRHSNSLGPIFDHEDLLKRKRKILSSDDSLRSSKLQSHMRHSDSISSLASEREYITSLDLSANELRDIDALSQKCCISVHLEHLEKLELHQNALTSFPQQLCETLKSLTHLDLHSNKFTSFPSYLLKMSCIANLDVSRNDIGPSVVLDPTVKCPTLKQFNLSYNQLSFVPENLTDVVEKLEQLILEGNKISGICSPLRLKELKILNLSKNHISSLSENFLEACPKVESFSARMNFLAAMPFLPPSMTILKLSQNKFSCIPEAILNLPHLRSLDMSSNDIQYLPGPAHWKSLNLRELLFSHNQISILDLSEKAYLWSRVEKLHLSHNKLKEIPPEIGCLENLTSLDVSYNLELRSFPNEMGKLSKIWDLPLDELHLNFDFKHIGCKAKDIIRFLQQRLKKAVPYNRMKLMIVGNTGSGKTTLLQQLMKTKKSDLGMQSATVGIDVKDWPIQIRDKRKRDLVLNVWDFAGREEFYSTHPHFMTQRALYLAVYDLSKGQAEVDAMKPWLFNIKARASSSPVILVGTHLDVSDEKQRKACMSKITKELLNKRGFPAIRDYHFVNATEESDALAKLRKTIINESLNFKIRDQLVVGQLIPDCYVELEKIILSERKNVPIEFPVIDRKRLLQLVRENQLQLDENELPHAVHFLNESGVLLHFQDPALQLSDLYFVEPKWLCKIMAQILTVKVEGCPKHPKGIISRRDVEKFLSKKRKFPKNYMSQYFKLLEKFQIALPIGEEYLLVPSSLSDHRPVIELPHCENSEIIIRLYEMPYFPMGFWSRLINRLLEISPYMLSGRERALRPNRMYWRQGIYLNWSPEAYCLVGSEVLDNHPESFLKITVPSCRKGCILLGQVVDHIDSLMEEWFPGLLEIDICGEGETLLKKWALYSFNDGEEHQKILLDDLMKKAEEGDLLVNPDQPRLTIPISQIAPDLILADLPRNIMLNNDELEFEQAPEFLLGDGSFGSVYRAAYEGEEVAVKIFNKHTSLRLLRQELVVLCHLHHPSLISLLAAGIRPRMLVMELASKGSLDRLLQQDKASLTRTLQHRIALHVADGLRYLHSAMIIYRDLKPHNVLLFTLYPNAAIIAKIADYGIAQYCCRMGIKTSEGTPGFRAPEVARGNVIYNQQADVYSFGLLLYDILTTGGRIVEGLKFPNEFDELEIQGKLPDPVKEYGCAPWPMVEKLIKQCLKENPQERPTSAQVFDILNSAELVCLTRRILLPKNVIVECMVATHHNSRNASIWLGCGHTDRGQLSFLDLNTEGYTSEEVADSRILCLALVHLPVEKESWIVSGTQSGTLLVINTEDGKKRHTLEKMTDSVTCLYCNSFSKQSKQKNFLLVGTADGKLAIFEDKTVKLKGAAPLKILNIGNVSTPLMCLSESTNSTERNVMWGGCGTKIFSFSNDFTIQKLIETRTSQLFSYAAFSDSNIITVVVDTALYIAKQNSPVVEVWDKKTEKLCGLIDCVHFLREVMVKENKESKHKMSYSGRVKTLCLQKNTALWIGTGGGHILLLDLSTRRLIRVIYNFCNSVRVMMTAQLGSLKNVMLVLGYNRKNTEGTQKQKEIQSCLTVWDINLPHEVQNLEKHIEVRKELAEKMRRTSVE

On to `CNc1nc(Nc2ccc(C(=O)N3CCN(CCOCCOCCSC(C)(C)[C@H](NC(=O)C4(F)CC4)C(=O)N4C[C@H](O)C[C@H]4C(=O)NCc4ccc(-c5scnc5C)cc4)CC3)cc2OC)ncc1Cl` [SD75, (2S,4R)-1-((R)-3-((2-(2-(2-(4-(4-((5-chloro-4-(methylamino)pyrimidin-2-yl)amino)-3-methoxybenzoyl)piperazin-1-yl)ethoxy)ethoxy)ethyl)thio)-2-(1-fluorocyclopropane-1-carboxamido)-3-methylbutanoyl)-4-hydroxy-N-(4-(4-methylthiazol-5-yl)benzyl)pyrrolidine-2-carboxamide], for which the EC50 is 279 nM in the assay with LRRK2 pSer935 [1] (24 h treatment), 2270 nM in the assay on Rab10 pThr73 (24 h treatment) and 745 nM with LRRK2 pSer935 [3] (24 h treatment). Moreover, the “T1/2 GS-pSer935-LRRK2” value in the assay with LRRK2 pSer935 [1] (time course at 1000 nM) is given as 1.4 h. Besides, the half-inhibitory concentration (IC50) stood at 1400 nM at LRRK2 [2] and 1100 nM at LRRK2 [4]. On LRRK2^G2019S (time course at 1000 nM), the “T1/2 of LRRK2^G2019S degradation” value was 1.1 h. Moreover, the “Selectivity Index (pRab10 dephosphorylation, WT vs G2019S MEFs)” value in the assay on Rab10 pThr73 (24 h) stood at 6.0. Further, the inhibition at 0.033 µM in the assay with Rab10 pThr73 (setting [5]) is 0 to 25%. Besides, the inhibition at 1 µM was 18 to 90% in the assay on Rab10 pThr73 (setting [6]) and 30 to 90% in the assay on Rab10 pThr73 (setting [7]). The same molecule had a Dmax at 1 µM in the assay on Rab10 pThr73 (Mus musculus, time course at 1000 nM, WT MEFs) of 41%. The “T1/2 of Rab10 dephosphorylation (WT)” value with Rab10 pThr73 (time course at 1000 nM, WT MEFs) turned out to be 6.7 h. Moreover, in the assay with LRRK2 pSer935 [3] (24 h), the “Selectivity Index (pSer935-LRRK2 dephosphorylation, WT vs G2019S MEFs)” value turned out to be 2.7. For the same molecule, the “T1/2 WT-pSer935-LRRK2” value in the assay with LRRK2 pSer935 [3] (time course at 1000 nM) came out at 3.6 h.
Take `CNc1nc(Nc2ccc(C(=O)N3CCN(C[C@H]4CC[C@H](CSC(C)(C)[C@H](NC(=O)C5(F)CC5)C(=O)N5C[C@H](O)CC5C(=O)NCc5ccc(-c6scnc6C)cc5)CC4)CC3)cc2OC)ncc1Cl` (stereo partly drawn) [XL01126, (2S,4R)-1-((R)-3-((((1R,4R)-4-((4-(4-((5-chloro-4-(methylamino)pyrimidin-2-yl)amino)-3-methoxybenzoyl)piperazin-1-yl)methyl)cyclohexyl)methyl)thio)-2-(1-fluorocyclopropane-1-carboxamido)-3-methylbutanoyl)-4-hydroxy-N-(4-(4-methylthiazol-5-yl)benzyl)pyrrolidine-2-carboxamide]: the half-maximal effective concentration (EC50) was determined as 9 nM in the assay on LRRK2 pSer935 [1] (4 h treatment) and 18 nM in the assay on LRRK2 pSer935 [3] (4 h treatment). Also, the “T1/2 GS-pSer935-LRRK2” value in the assay on LRRK2 pSer935 [1] (time course at 300 nM) came out at 0.3 h. For the same molecule, the IC50 at LRRK2 [2] worked out at 350 nM; at LRRK2 [4] it was 2000 nM. The “T1/2 of LRRK2^G2019S degradation” value at LRRK2^G2019S (time course at 300 nM) came out at 0.6 h. For the same molecule, the inhibition at 0.033 µM in the assay on Rab10 pThr73 (setting [8]) lay in the range of 0 to 60%. The Dmax at 0.3 µM in the assay with Rab10 pThr73 (setting [9]) amounted to 84%. For the same molecule, the “T1/2 WT-pSer935-LRRK2” value with LRRK2 pSer935 [3] (time course at 300 nM) is recorded as 0.6 h.
`CNc1nc(Nc2ccc(C(=O)N3CCN(C[C@H]4CC[C@@H](CSC(C)(C)[C@H](NC(=O)C5(F)CC5)C(=O)N5C[C@H](O)CC5C(=O)NCc5ccc(-c6scnc6C)cc5)CC4)CC3)cc2OC)ncc1Cl` (stereo partly drawn) [XL01134]: the EC50 was 5 nM with LRRK2 pSer935 [1] (4 h treatment); 74 nM with Rab10 pThr73 (Mus musculus, 4 h treatment); 35 nM in the assay on LRRK2 pSer935 [3] (4 h treatment). The “T1/2 GS-pSer935-LRRK2” value in the assay on LRRK2 pSer935 [1] (time course at 300 nM) came out at 0.3 h. Moreover, the IC50 was 790 nM on LRRK2 [2] and 1100 nM at LRRK2 [4]. The results for the Dmax at 0.3 µM at LRRK2^G2019S (time course at 300 nM) and in the assay with Rab10 pThr73 (setting [9]) were 82% and 68%, respectively. On LRRK2^G2019S (time course at 300 nM), the “T1/2 of LRRK2^G2019S degradation” value is 1.4 h. Also, the figures for the inhibition at 0.033 µM in the assay on Rab10 pThr73 (setting [5]) and with Rab10 pThr73 (setting [8]) were 0 to 40% and 0 to 60%, respectively. The inhibition at 1 µM was 10 to 95% in the assay on Rab10 pThr73 (setting [6]) and 30 to 100% in the assay on Rab10 pThr73 (setting [7]). Also, the “T1/2 of Rab10 dephosphorylation (WT)” value with Rab10 pThr73 (time course at 300 nM, WT MEFs) amounted to 2.1 h. For the same molecule, the “T1/2 WT-pSer935-LRRK2” value in the assay with LRRK2 pSer935 [3] (time course at 300 nM) was determined as 0.7 h.

(Values after patent US20260001875A1, “AMINOPYRIMIDINYL DERIVATIVES FOR THE TREATMENT OF PARKINSON'S DISEASE” (UNIVERSITY OF DUNDEE, priority 2022, published 2026).)
